Test results reported in patent US9181290B2, “Inhibition of biofilm formation by 1,2,3,4,6-penta-O-galloyl-D-glucopyranose” (CHANG GUNG UNIVERSITY, priority 2011, dated 2015).
“Also recorded” adds a separate entry of the source.

How the values were obtained:
[1] = system: S. aureus SA113 (ATCC 35556); test: Biofilm formation on polycarbonate discs (crystal violet); format: cell-based; settings: Staphylococcus aureus, ATCC35556, 6 hours, read-out: inhibition of biofilm formation on polycarbonate surface
Method: To quantify the amount of biofilm formed on polycarbonate surface, a 13-mm-diameter polycarbonate disc (Thermanox, Nalgene Nunc International, Rochester, N.Y., USA) was placed in a well of a 24-well microtiter plate, followed by the addition of 1 mL aliquot of the diluted bacterial culture. After incubation at 37° C. for a designated period of time, viable cells were washed off the surface of the polycarbonate disc with PBS and counted as described above, while the PBS-washed polycarbonate disc was subjected to crystal violet staining for biofilm quantification as described above.
To determine the effect(s) of (β-PGG upon bacterial growth and biofilm formation, β-PGG in various amounts (final concentration: 0, 1.56, 3.13, 6.25, 12.5, 25 and 50 μM) was added into the culture of S. aureus SA113 during seeding into the wells of polystyrene microtiter plates, followed by incubation at 37° C. for 6 hrs or 24 hrs. Cell growth was determined by measuring the absorbance at 578 nm, and the amount of biofilm formed on polystyrene surface was determined at 595 nm after crystal violet staining. In addition to polystyrene surface, the effect of β-PGG in inhibiting biofilm formation on polycarbonate surface was also examined according to the procedures as described in the preceding section entitled “Materials and methods.”

[2] = system: human epithelial and fibroblast cells; test: Toxicity to human cells (summary statement); format: cell-based; settings: concentrations below 50 μM
Method: Human HepG2 cells (ATCC HB-8065) and 293T cells (ATCC CRL-11268) were cultured in Dulbecco's modified Eagle's medium (DMEM) supplemented with 10% (v/v) fetal calf serum. Human MRC-5 cells (ATCC CCL171) and HEp-2 cells (ATCC CCL-23) were cultured in Eagle's minimum essential medium (MEM) supplemented with 10% fetal calf serum. These four human cell lines were seeded into 24-well polystyrene tissue culture plates at a cell density of 1×10^5 cells/500 μL medium per well, respectively. After incubation at 37° C. for 24 hrs, β-PGG was added into each well in various amounts (0, 6.25, 12.5, 25 and 50 μM). After 24 hr treatment of β-PGG, toxicity of β-PGG to these human cell lines was determined using the 3-(4,5-dimethylthiazol-2-yl)-2,5-diphenyltetrazolium bromide (MTT) method (Xiangshu Piao et al. (2008), supra). Additionally, toxicity of β-PGG to the 293T cells was also determined in medium containing 0% and 2% fetal calf serum. Cells treated with DMSO were used as a negative control.

[3] = system: S. aureus clinical strain SA435 (MRSA); test: Growth (A578) and biofilm (A595) in polystyrene plates; format: cell-based, Staphylococcus aureus; settings: 12.5 μM β-PGG, 6 hr
Method: (§1) An overnight bacterial culture was 200-fold diluted with TSBg, and a 200 μL aliquot of the diluted culture was seeded into each well of 96-well polystyrene microtiter plates and incubated at 37° C. for a designated period of time. Cell growth was determined by measuring the absorbance at 578 nm (A578) with a microtiter plate reader (SpectraMax 340, Molecular Devices). After washing with PBS twice to remove suspended cells, the wells were stained with 0.1% (w/v) crystal violet in 10% ethanol and then treated with 30% acetic acid in dH2O, followed by detecting the absorbance at 595 nm (A595) with the microtiter plate reader to quantify the amount of biofilm formed on polystyrene surface.

[4] = system: S. aureus clinical strain SA130 (MRSA); test: as above; format: cell-based, Staphylococcus aureus; settings: 12.5 μM β-PGG, 6 hr
Method: as §1

[5] = system: S. aureus clinical strain SA703 (MRSA); test: as above; format: cell-based, Staphylococcus aureus; settings: 12.5 μM β-PGG, 6 hr
Method: as §1

[6] = system: S. aureus clinical strain SA289 (MSSA); test: as above; format: cell-based, Staphylococcus aureus; settings: 12.5 μM β-PGG, 6 hr
Method: as §1

[7] = system: S. aureus clinical strain SAChu (MRSA); test: as above; format: cell-based, Staphylococcus aureus; settings: 12.5 μM β-PGG, 6 hr
Method: as §1

[8] = system: S. aureus clinical strain SA288 (MSSA); test: as above; format: cell-based, Staphylococcus aureus; settings: 12.5 μM β-PGG, 6 hr
Method: as §1

S. aureus SA113 [9] = test: CFU counting of cells adhered to polystyrene surface; format: cell-based, Staphylococcus aureus
From the text: To count the number of viable cells, the removed suspended cells were suspended in PBS by pipetting, and the resultant cell suspension was sonicated and serially diluted and subsequently plated on TSBg agar plate for colony forming unit (CFU) counting according to a method described earlier (S. Schlag et al. (2007), J. Bacteriol., 189:7911-7919).
In addition to biofilm formation, the number of cells attached to polystyrene surface and polycarbonate surface were also counted. Subsequent to the incubation of S. aureus SA113 cells with β-PGG (0 μM, 6.25 μM or 12.5 μM) for 20, 40 and 60 min, cells adhered to the polystyrene surface or polycarbonate surface were washed and suspended in PBS, followed by plating on TSBg agar for CFU counting. After incubation on polystyrene surface for 20, 40 and 60 min, the number of cells counted for the DMSO-treated control (i.e., 0 μM β-PGG) was 4.1×10^5, 6.4×10^5 and 7.8×10^5 CFU, respectively (FIG. 4, panel A, black bars).

S. aureus SA113 [10] = test: Adherence assay: β-PGG added at different times after inoculation, biofilm by crystal violet at 6 hours; format: cell-based, Staphylococcus aureus; settings: for reduction of biofilm formation: read at 6 hours
Method: At 6 hours after seeding, the wells were subjected to crystal violet staining to determine the amounts of biofilm formed on the inner surfaces of the wells of polystyrene microtiter plates or on the polycarbonate discs.

SMILES: O=C(OC[C@H]1O[C@@H](OC(=O)c2cc(O)c(O)c(O)c2)[C@H](OC(=O)c2cc(O)c(O)c(O)c2)[C@@H](OC(=O)c2cc(O)c(O)c(O)c2)[C@@H]1OC(=O)c1cc(O)c(O)c(O)c1)c1cc(O)c(O)c(O)c1 [β-PGG, 1,2,3,4,6-penta-O-galloyl-β-D-glucopyranose]
- inhibition at 6.25 µM ([1]; 6.25 μM): 75%
- inhibition at 12.5 µM ([1]; 12.5 μM): 96%
- inhibition at 25 µM ([1]; 25 μM): 99%
- toxicity to human epithelial and fibroblast cells [2]: lacks toxicity; also recorded: not toxic
- Growth (A578) ([3]; 0 μM: 0.64 ± 0.10): 0.67 ± 0.09
- Biofilm (A595) ([3]; 0 μM: 0.97 ± 0.09): 0.46 ± 0.06
- Growth (A578) ([4]; 0 μM: 0.61 ± 0.12): 0.62 ± 0.17
- Biofilm (A595) ([4]; 0 μM: 3.05 ± 0.10): 0.32 ± 0.04
- Growth (A578) ([5]; 0 μM: 0.74 ± 0.10): 0.70 ± 0.07
- Biofilm (A595) ([5]; 0 μM: 2.33 ± 0.02): 0.88 ± 0.07
- Growth (A578) ([6]; 0 μM: 0.77 ± 0.02): 0.72 ± 0.07
- Biofilm (A595) ([6]; 0 μM: 1.16 ± 0.01): 0.35 ± 0.01
- Growth (A578) ([7]; 0 μM: 0.56 ± 0.02): 0.52 ± 0.04
- Biofilm (A595) ([7]; 0 μM: 8.06 ± 0.10): 0.77 ± 0.11
- Growth (A578) ([8]; 0 μM: 0.55 ± 0.01): 0.50 ± 0.01
- Biofilm (A595) ([8]; 0 μM: 0.83 ± 0.02): 0.10 ± 0.01
- number of cells attached to polystyrene surface (S. aureus SA113 [9]; 6.25 μM, 20 min, DMSO control 4.1×10^5): 2.1×10^5 CFU
- number of cells attached to polystyrene surface (S. aureus SA113 [9]; 6.25 μM, 40 min, DMSO control 6.4×10^5): 2.05×10^5 CFU
- number of cells attached to polystyrene surface (S. aureus SA113 [9]; 6.25 μM, 60 min, DMSO control 7.8×10^5): 1.8×10^5 CFU
- number of cells attached to polystyrene surface (S. aureus SA113 [9]; 12.5 μM, 20 min, DMSO control 4.1×10^5): 3.7×10^4 CFU
- number of cells attached to polystyrene surface (S. aureus SA113 [9]; 12.5 μM, 40 min, DMSO control 6.4×10^5): 2.3×10^4 CFU
- number of cells attached to polystyrene surface (S. aureus SA113 [9]; 12.5 μM, 60 min, DMSO control 7.8×10^5): 1.7×10^4 CFU
- reduction of biofilm formation (S. aureus SA113 [10]; 6.25 μM added at 0.5 hr after inoculation, DMSO = 100%): 62%
- reduction of biofilm formation (S. aureus SA113 [10]; 6.25 μM added at 1 hr after inoculation, DMSO = 100%): 19%
- reduction of biofilm formation (S. aureus SA113 [10]; 12.5 μM added at 0.5 and 1 hr after inoculation): more than 90%
- inhibition of biofilm formation (S. aureus SA113 [10]; added at 1.5 and 2 hr after inoculation): not inhibited
- time of addition after seeding at which β-PGG is effective (S. aureus SA113 [10]; added into the culture medium after seeding): ≤ 1 h
